One experiment addresses T1, Kv1.3 potassium channel (Homo sapiens, UniProt P22001).
T1 construct: expressed in transfected cells
Briefly: Kv1.3 potassium channel blocker activity, automated whole-cell patch clamp (Patchliner). The experiment is classed as cell-based. Put shortly: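 IC50 came from Hill-equation fits of peak and AUC currents from the final pulse at each concentration, normalized to compound-free control. Compounds applied consecutively at 30 nM to 100 μM (up to 0.3% DMSO) to Kv1.3-expressing CHO-K1 cells, P/4 leak subtraction. Pulses were +40 mV, 100 ms, from −90 mV holding, at 0.1 Hz on Patchliner.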
In general terms: In patch-clamp work, channel activity is measured electrically.

In a further experiment the target is T2, hERG channel (Homo sapiens, UniProt Q12809).
T2 construct: expressed in transfected cells
Briefly: hERG electrophysiology, automated whole-cell patch clamp (Patchliner). Format: cell-based. Put shortly: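 Currents were recorded at 0.3 Hz from −80 mV, stepping to +20 mV then −50 mV (300 ms each), in stably transfected CHO-K1 cells. Concentrations (30 nM–100 μM, up to 0.3% DMSO) were added sequentially without washout. IC50 came from Hill fits of control-normalized AUC/peak of each train's final pulse.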
In general terms: hERG is a cardiac potassium channel; its block is linked to QT prolongation.

[1] abbreviates: Kv1.3 potassium channel, whole-cell patch clamp.
The mark [2] stands for this setting: hERG channel, whole-cell patch clamp.
[3] abbreviates: CHO-K1 cells stably expressing Kv1.3, 100 ms pulses from -90 mV to +40 mV, 0.1 Hz.
[4] abbreviates: CHO-K1 cells stably expressing hERG, +20 mV 300 ms, -50 mV 300 ms tail current, 0.3 Hz.

Experimental findings from patent publication US20230049231A1 (priority 2019, published 2023) are described below.

Molecules are shown by their SMILES. A value given as a limit tells only on which side of the number the result lay.

T1 sequence (P22001 whole entry): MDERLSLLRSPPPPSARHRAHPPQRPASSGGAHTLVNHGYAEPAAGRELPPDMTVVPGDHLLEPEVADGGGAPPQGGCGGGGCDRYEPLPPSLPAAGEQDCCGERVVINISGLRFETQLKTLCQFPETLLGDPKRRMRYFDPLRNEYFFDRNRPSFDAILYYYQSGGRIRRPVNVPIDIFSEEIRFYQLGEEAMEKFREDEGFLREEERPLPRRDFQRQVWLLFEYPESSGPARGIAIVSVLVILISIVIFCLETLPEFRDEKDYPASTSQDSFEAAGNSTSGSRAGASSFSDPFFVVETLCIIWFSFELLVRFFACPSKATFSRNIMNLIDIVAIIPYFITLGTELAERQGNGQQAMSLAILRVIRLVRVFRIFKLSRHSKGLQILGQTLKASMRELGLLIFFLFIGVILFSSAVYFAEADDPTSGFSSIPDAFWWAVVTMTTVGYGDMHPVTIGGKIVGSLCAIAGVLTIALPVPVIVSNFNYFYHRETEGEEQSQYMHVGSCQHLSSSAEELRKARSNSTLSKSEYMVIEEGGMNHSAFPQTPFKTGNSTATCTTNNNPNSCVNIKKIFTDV
T2 sequence (Q12809 whole entry): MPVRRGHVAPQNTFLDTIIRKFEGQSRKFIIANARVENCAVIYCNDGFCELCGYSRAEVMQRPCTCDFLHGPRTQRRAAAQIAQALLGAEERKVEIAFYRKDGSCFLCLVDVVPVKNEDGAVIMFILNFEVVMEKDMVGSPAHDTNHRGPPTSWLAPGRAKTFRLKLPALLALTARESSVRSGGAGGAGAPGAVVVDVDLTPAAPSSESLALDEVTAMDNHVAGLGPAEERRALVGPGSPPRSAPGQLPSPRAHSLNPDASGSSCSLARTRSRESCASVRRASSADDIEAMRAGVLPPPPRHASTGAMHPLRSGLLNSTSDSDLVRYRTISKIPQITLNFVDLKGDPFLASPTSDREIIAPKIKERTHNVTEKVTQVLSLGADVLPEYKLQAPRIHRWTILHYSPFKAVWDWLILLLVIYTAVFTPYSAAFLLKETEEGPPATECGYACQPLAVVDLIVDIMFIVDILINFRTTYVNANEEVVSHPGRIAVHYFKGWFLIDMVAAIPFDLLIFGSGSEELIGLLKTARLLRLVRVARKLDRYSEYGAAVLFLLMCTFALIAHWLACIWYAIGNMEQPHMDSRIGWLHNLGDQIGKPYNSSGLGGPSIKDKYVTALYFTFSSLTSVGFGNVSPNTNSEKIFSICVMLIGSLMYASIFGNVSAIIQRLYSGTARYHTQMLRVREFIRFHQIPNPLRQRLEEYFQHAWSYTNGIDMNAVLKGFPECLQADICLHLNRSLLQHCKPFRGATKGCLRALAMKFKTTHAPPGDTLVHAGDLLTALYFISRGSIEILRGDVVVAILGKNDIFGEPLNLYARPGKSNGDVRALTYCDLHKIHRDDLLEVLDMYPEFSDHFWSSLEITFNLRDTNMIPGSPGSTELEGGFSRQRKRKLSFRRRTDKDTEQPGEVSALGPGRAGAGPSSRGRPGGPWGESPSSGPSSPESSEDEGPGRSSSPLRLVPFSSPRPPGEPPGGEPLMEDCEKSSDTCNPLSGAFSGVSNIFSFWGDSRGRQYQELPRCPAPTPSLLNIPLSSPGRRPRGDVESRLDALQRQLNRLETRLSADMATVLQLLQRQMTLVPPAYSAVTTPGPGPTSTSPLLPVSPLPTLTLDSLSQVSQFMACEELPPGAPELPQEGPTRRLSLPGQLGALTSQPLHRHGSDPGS

On to `O=C(CO)NC[C@H]1OC(=O)N2C[C@@H](c3c(O)ccc(Cl)c3Cl)C[C@@H]12` (single isomer, unassigned) [Compound 275], for which the IC50 was less than 1 µM against Kv1.3 potassium channel (setting [1]) and more than 30 µM against hERG channel (setting [2]).

On to `O=C([C@@H](O)CO)N1CC(=O)N2CC[C@H](c3c(O)ccc(Cl)c3Cl)C[C@@H]2C1` [Compound 64, (8S,9aR)-8-(2,3-dichloro-6-hydroxyphenyl)-2-[(2S)-2,3-dihydroxy-propanoyl]-hexahydro-1H-pyrido[1,2-a]pyrazin-4-one], for which the IC50 against Kv1.3 potassium channel (setting [1]) was less than 1 µM; against hERG channel (setting [2]), more than 30 µM.

As to `CC(C)(O)CN1CC(=O)N2C[C@@H](c3c(O)ccc(Cl)c3Cl)C[C@H]2C1` [Compound 148, (7R,8aS)-7-(2,3-dichloro-6-hydroxyphenyl)-2-(2-hydroxy-2-methylpropyl)-hexahydropyrrolo[1,2-a]pyrazin-4-one], the IC50 against Kv1.3 potassium channel (setting [1]) is less than 1 µM; against hERG channel (setting [2]), more than 30 µM.

On to `O=C(N1CC[C@H](O)C1)N1CC(=O)N2C[C@@H](c3c(O)ccc(Cl)c3Cl)C[C@H]2C1` [Compound 102, (7R,8aS)-7-(2,3-dichloro-6-hydroxyphenyl)-2-[(3S)-3-hydroxypyrrolidine-1-carbonyl]-hexahydropyrro[1,2-a]pyrazine-4-one], for which the results for the IC50 against Kv1.3 potassium channel (setting [1]) and against hERG channel (setting [2]) were less than 1 µM and more than 30 µM, respectively.

Take `CNC(=O)N1CC(=O)N2C[C@@H](c3c(O)ccc(Cl)c3Cl)C[C@H]2C1` [Compound 37, (7R,8aS)-7-(2,3-dichloro-6-hydroxyphenyl)-N-methyl-4-oxo-hexahydropyrrolo[1,2-a]pyrazine-2-carboxamide]: the IC50 is less than 1 µM at Kv1.3 potassium channel (setting [3]) and more than 30 µM against hERG channel (setting [4]).

Regarding `CNCC1OC(=O)N2C[C@@H](c3c(O)ccc(Cl)c3Cl)C[C@@H]12` (stereo partly drawn) [Compound 281, (6R,7aS)-6-(2,3-dichloro-6-hydroxyphenyl)-1-[(methylamino)methyl]-tetrahydro-1H-pyrrolo[1,2-c][1,3]oxazol-3-one], the IC50 against Kv1.3 potassium channel (setting [1]) is less than 1 µM; against hERG channel (setting [2]), less than 30 µM.

On to `C[C@@H](O)CN1CC(=O)N2C[C@@H](c3c(O)ccc(Cl)c3Cl)C[C@H]2C1` (single isomer, unassigned; isomer 1) [Compound 150], for which the IC50 was less than 1 µM at Kv1.3 potassium channel (setting [1]) and more than 30 µM on hERG channel (setting [2]).

For the molecule `C[C@H]1CN(C(=O)CO)C[C@@H]2C[C@H](c3c(O)ccc(Cl)c3Cl)CN2C1=O` (single isomer, unassigned; isomer 2) [Compound 92], the IC50 was less than 1 µM on Kv1.3 potassium channel (setting [1]) and more than 30 µM against hERG channel (setting [2]).

As for `O=C1CN(C[C@H]2CNCCO2)C[C@@H]2C[C@H](c3c(O)ccc(Cl)c3Cl)CN12` [Compound 147, (7R,8aS)-7-(2,3-dichloro-6-hydroxyphenyl)-2-[(2R)-morpholin-2-ylmethyl]-hexahydropyrrolo [1,2-a]pyrazin-4-one], the IC50 at Kv1.3 potassium channel (setting [1]) is less than 1 µM; at hERG channel (setting [2]), more than 30 µM.

`O=C1OC[C@@H](O)[C@@H]2C[C@H](c3c(O)ccc(Cl)c3Cl)CN12` (single isomer, unassigned) [Compound 266]: the IC50 was less than 1 µM against Kv1.3 potassium channel (setting [1]) and more than 30 µM against hERG channel (setting [2]).

As to `C[C@@H]1NC[C@@H]2C[C@H](c3c(O)ccc(Cl)c3Cl)CN2C1=O` [Compound 85, (3S,7R,8aS)-7-(2,3-dichloro-6-hydroxyphenyl)-3-methyl-hexahydro-1H-pyrrolo[1,2-a]pyrazin-4-one], the IC50 was less than 1 µM against Kv1.3 potassium channel (setting [1]) and less than 30 µM at hERG channel (setting [2]).

For the molecule `O=C(NCCO)[C@@H]1CC(=O)N2C[C@@H](c3c(O)ccc(Cl)c3Cl)C[C@H]2C1` (single isomer, unassigned) [Compound 234], the IC50 is less than 1 µM against Kv1.3 potassium channel (setting [1]) and more than 30 µM against hERG channel (setting [2]).

As for `NC(=O)N1CCC(=O)N2C[C@@H](c3c(O)ccc(Cl)c3Cl)C[C@H]2C1` [Compound 97, (8R,9aS)-8-(2,3-dichloro-6-hydroxyphenyl)-5-oxo-hexahydro-1H-pyrrolo [1,2-a][1,4]diazepine-2-carboxamide], the IC50 against Kv1.3 potassium channel (setting [1]) is less than 1 µM; against hERG channel (setting [2]), more than 30 µM.

As to `O=C1C[C@@H](CO)C[C@@H]2C[C@H](c3c(O)ccc(Cl)c3Cl)CN12` (single isomer, unassigned) [Compound 237], the IC50 is less than 1 µM against Kv1.3 potassium channel (setting [1]) and more than 30 µM on hERG channel (setting [2]).

For `O=C1O[C@H]([C@@H](O)CO)[C@@H]2C[C@H](c3c(O)ccc(Cl)c3Cl)CN12` (single isomer, unassigned) [Compound 262], the values for the IC50 at Kv1.3 potassium channel (setting [1]) and on hERG channel (setting [2]) were less than 1 µM and more than 30 µM, respectively.

With `C[C@H](O)CC(=O)N1CC(=O)N2C[C@@H](c3c(O)ccc(Cl)c3Cl)C[C@H]2C1` [Compound 59, (7R,8aS)-7-(2,3-dichloro-6-hydroxyphenyl)-2-[(3S)-3-hydroxybutanoyl]-hexahydropyrrolo[1,2-a]pyrazin-4-one], the figures for the IC50 against Kv1.3 potassium channel (setting [3]) and against hERG channel (setting [4]) were less than 1 µM and more than 30 µM, respectively.

As to `O=C(C[C@H](O)C1CC1)N1CC(=O)N2C[C@@H](c3c(O)ccc(Cl)c3Cl)C[C@H]2C1` [Compound 71, (7R,8aS)-2-[(3S)-3-cyclopropyl-3-hydroxypropanoyl]-7-(2,3-dichloro-6-hydroxyphenyl)-hexahydropyrrolo [1,2-a]pyrazin-4-one], the IC50 on Kv1.3 potassium channel (setting [1]) was less than 1 µM; on hERG channel (setting [2]), less than 30 µM.

Take `C[C@H]1[C@@H]2C[C@H](c3c(O)ccc(Cl)c3Cl)CN2C(=O)CN1C(=O)CO` (single isomer, unassigned; isomer 2) [Compound 88]: the IC50 is less than 1 µM against Kv1.3 potassium channel (setting [1]) and more than 30 µM at hERG channel (setting [2]).

Turning to `CC(CO)N1CC(=O)N2C[C@@H](c3c(O)ccc(Cl)c3Cl)C[C@H]2C1` (stereo partly drawn) [Compound 127, (7R,8aS)-7-(2,3-dichloro-6-hydroxyphenyl)-2-(1-hydroxypropan-2-yl)-hexahydropyrrolo [1,2-a]pyrazin-4-one], the results for the IC50 against Kv1.3 potassium channel (setting [1]) and against hERG channel (setting [2]) were less than 1 µM and more than 30 µM, respectively.

For `O=C(CCO)N1CC(=O)N2CC[C@@H](c3c(O)ccc(Cl)c3Cl)C[C@H]2C1` [Compound 11, (8R,9aS)-8-(2,3-dichloro-6-hydroxyphenyl)-2-(3-hydroxypropanoyl)octahydro-4H-pyrido[1,2-a]pyrazin-4-one], the concentration for half-maximal inhibition (IC50) against Kv1.3 potassium channel (setting [3]) was less than 1 µM; against hERG channel (setting [4]), more than 30 µM.

Take `O=C1O[C@H](CO)[C@@H]2C[C@H](c3c(O)ccc(Cl)c3Cl)CN12` (single isomer, unassigned) [Compound 254]: the figures for the IC50 against Kv1.3 potassium channel (setting [1]) and at hERG channel (setting [2]) were less than 1 µM and more than 30 µM, respectively.

As for `O=C1CC(N2CCOCC2)C[C@@H]2C[C@H](c3c(O)ccc(Cl)c3Cl)CN12` (stereo partly drawn) [Compound 195, (2R,8aS)-2-(2,3-dichloro-6-hydroxyphenyl)-7-(morpholin-4-yl)-hexahydro-1-indolizin-5-one], the IC50 against Kv1.3 potassium channel (setting [1]) was less than 1 µM; at hERG channel (setting [2]), less than 30 µM.

For `O=C1C[C@H](CO)C[C@@H]2C[C@H](c3c(O)ccc(Cl)c3Cl)CN12` (single isomer, unassigned) [Compound 238], the IC50 against Kv1.3 potassium channel (setting [1]) is less than 1 µM; against hERG channel (setting [2]), more than 30 µM.

With `CC(CO)(CO)N1CC(=O)N2C[C@@H](c3c(O)ccc(Cl)c3Cl)C[C@H]2C1` [Compound 162, (7R,8aS)-7-(2,3-dichloro-6-hydroxyphenyl)-2-(1,3-dihydroxy-2-methylpropan-2-yl)-hexahydropyrrolo[1,2-a]pyrazin-4-one], the IC50 against Kv1.3 potassium channel (setting [1]) is less than 1 µM; at hERG channel (setting [2]) it was more than 30 µM.

With `O=C1CN(C2CC[C@@H](O)[C@H]2O)C[C@@H]2C[C@H](c3c(O)ccc(Cl)c3Cl)CN12` (relative stereo) [Compound 136, (7R,8aS)-7-(2,3-dichloro-6-hydroxyphenyl)-2-[(2S,3R)-rel-2,3-dihydroxycyclopentyl]-hexahydropyrrolo [1,2-a]pyrazin-4-one], the figures for the 50% inhibitory concentration (IC50) at Kv1.3 potassium channel (setting [1]) and on hERG channel (setting [2]) were less than 1 µM and more than 30 µM, respectively.

On to `O=C1O[C@@H](CO)[C@@H]2C[C@H](c3c(O)ccc(Cl)c3Cl)CN12` (single isomer, unassigned) [Compound 253], for which the results for the IC50 against Kv1.3 potassium channel (setting [1]) and against hERG channel (setting [2]) were less than 1 µM and more than 30 µM, respectively.

With `NCCN1C[C@@H]2C[C@H](c3c(O)ccc(Cl)c3Cl)CN2C1=O` [Compound 292, (6R,7aS)-2-(2-aminoethyl)-6-(2,3-dichloro-6-hydroxyphenyl)-tetrahydro-1H-pyrrolo[1,2-c]imidazol-3-one], the IC50 on Kv1.3 potassium channel (setting [1]) is less than 1 µM; on hERG channel (setting [2]), less than 30 µM.

For the molecule `CN(CCO)[C@@H]1CC(=O)N2C[C@@H](c3c(O)ccc(Cl)c3Cl)C[C@H]2C1` (single isomer, unassigned) [Compound 204], the IC50 against Kv1.3 potassium channel (setting [1]) is less than 1 µM; at hERG channel (setting [2]), more than 30 µM.

Turning to `O=C1C(O)C(O)C[C@@H]2C[C@H](c3c(O)ccc(Cl)c3Cl)CN12` (stereo partly drawn) [Compound 226, (2R,8aS)-2-(2,3-dichloro-6-hydroxyphenyl)-6,7-dihydroxy-hexahydro-1H-indolizin-5-one], the IC50 at Kv1.3 potassium channel (setting [1]) was less than 1 µM; against hERG channel (setting [2]), more than 30 µM.

Turning to `O=C1CN(C2COCC2O)C[C@@H]2C[C@H](c3c(O)ccc(Cl)c3Cl)CN12` (stereo partly drawn) [Compound 149, (7R,8aS)-7-(2,3-dichloro-6-hydroxyphenyl)-2-(4-hydroxyoxolan-3-yl)-hexahydropyrrolo[1,2-a]pyrazin-4-one], the IC50 is less than 1 µM on Kv1.3 potassium channel (setting [1]) and more than 30 µM against hERG channel (setting [2]).

In the case of `COC[C@@H](O)C(=O)N1CC(=O)N2CC[C@@H](c3c(O)ccc(Cl)c3Cl)C[C@H]2C1` [Compound 4, (8R,9aS)-8-(2,3-dichloro-6-hydroxyphenyl)-2-[(2R)-2-hydroxy-3-methoxypropanoyl]-hexahydro-1H-pyrido[1,2-a]pyrazin-4-one], the IC50 is less than 1 µM on Kv1.3 potassium channel (setting [3]) and more than 30 µM at hERG channel (setting [4]).

What is called IC50 is the concentration that inhibits the measured activity by half. High values mean weaker potency in that assay, low ones greater potency in that assay.
